Source: the NIST ThermoML archive (doi:10.1016/j.jct.2018.10.015)

Experiment: xn = mol fraction of the nth substance listed
Details: 101.3 kPa, Liquid; for viscosity: Concentric cylinders viscometry; for mass density: Vibrating tube method

CCCCn1cc[n+](C)c1C.O=S(=O)([N-]S(=O)(=O)C(F)(F)F)C(F)(F)F + CCOC(=O)OCC
Details	mass density [kg/m3]	viscosity [mPa·s]
293.15 K, x1 = 0.0996	1078.2	2.172
293.15 K, x1 = 0.199	1156.1	4.104
293.15 K, x1 = 0.299	1216.4	7.648
293.15 K, x1 = 0.3982	1263.9	13.1
293.15 K, x1 = 0.4985	1302.6	21.35
293.15 K, x1 = 0.5979	1334.6	33.14
293.15 K, x1 = 0.698	1361.8	49.42
293.15 K, x1 = 0.8	1385.4	71.45
293.15 K, x1 = 0.9012	1405.7	99.34
293.15 K, x1 = 1	1423.1	133.6
298.15 K, x1 = 0.0996	1072.9	1.989
298.15 K, x1 = 0.199	1151	3.665
298.15 K, x1 = 0.299	1211.4	6.684
298.15 K, x1 = 0.3982	1259	11.19
298.15 K, x1 = 0.4985	1297.7	17.82
298.15 K, x1 = 0.5979	1329.8	27.06
298.15 K, x1 = 0.698	1357.1	39.58
298.15 K, x1 = 0.8	1380.8	56.2
298.15 K, x1 = 0.9012	1401.1	76.75
298.15 K, x1 = 1	1418.5	101.82
303.15 K, x1 = 0.0996	1067.5	1.829
303.15 K, x1 = 0.199	1145.8	3.295
303.15 K, x1 = 0.299	1206.4	5.892
303.15 K, x1 = 0.3982	1254.1	9.654
303.15 K, x1 = 0.4985	1292.9	15.06
303.15 K, x1 = 0.5979	1325.1	22.44
303.15 K, x1 = 0.698	1352.4	32.24
303.15 K, x1 = 0.8	1376.1	44.95
303.15 K, x1 = 0.9012	1396.5	60.57
303.15 K, x1 = 1	1413.9	79.23
308.15 K, x1 = 0.0996	1062.1	1.689
308.15 K, x1 = 0.199	1140.6	2.979
308.15 K, x1 = 0.299	1201.3	5.234
308.15 K, x1 = 0.3982	1249.1	8.41
308.15 K, x1 = 0.4985	1288.1	12.88
308.15 K, x1 = 0.5979	1320.3	18.86
308.15 K, x1 = 0.698	1347.6	26.64
308.15 K, x1 = 0.8	1371.4	36.59
308.15 K, x1 = 0.9012	1391.9	48.62
308.15 K, x1 = 1	1409.3	62.74
313.15 K, x1 = 0.0996	1056.8	1.565
313.15 K, x1 = 0.199	1135.4	2.708
313.15 K, x1 = 0.299	1196.3	4.682
313.15 K, x1 = 0.3982	1244.2	7.39
313.15 K, x1 = 0.4985	1283.2	11.12
313.15 K, x1 = 0.5979	1315.5	16.03
313.15 K, x1 = 0.698	1342.9	22.31
313.15 K, x1 = 0.8	1366.8	30.21
313.15 K, x1 = 0.9012	1387.2	39.65
313.15 K, x1 = 1	1404.8	50.56
318.15 K, x1 = 0.0996	1051.4	1.456
318.15 K, x1 = 0.199	1130.3	2.472
318.15 K, x1 = 0.299	1191.3	4.215
318.15 K, x1 = 0.3982	1239.3	6.543
318.15 K, x1 = 0.4985	1278.4	9.697
318.15 K, x1 = 0.5979	1310.8	13.78
318.15 K, x1 = 0.698	1338.2	18.9
318.15 K, x1 = 0.8	1362.1	25.27
318.15 K, x1 = 0.9012	1382.6	32.78
318.15 K, x1 = 1	1400.2	41.38
323.15 K, x1 = 0.0996	1046	1.359
323.15 K, x1 = 0.199	1125.1	2.268
323.15 K, x1 = 0.299	1186.3	3.816
323.15 K, x1 = 0.3982	1234.4	5.835
323.15 K, x1 = 0.4985	1273.6	8.523
323.15 K, x1 = 0.5979	1306	11.95
323.15 K, x1 = 0.698	1333.6	16.18
323.15 K, x1 = 0.8	1357.5	21.39
323.15 K, x1 = 0.9012	1378	27.46
323.15 K, x1 = 1	1395.6	34.32
328.15 K, x1 = 0.0996	1040.5	1.271
328.15 K, x1 = 0.199	1119.8	2.09
328.15 K, x1 = 0.299	1181.2	3.473
328.15 K, x1 = 0.3982	1229.5	5.245
328.15 K, x1 = 0.4985	1268.7	7.565
328.15 K, x1 = 0.5979	1301.3	10.47
328.15 K, x1 = 0.698	1328.8	14.02
328.15 K, x1 = 0.8	1352.8	18.35
328.15 K, x1 = 0.9012	1373.4	23.33
328.15 K, x1 = 1	1391	28.91
